Laboratory results published in US12599602B2, “Methods for treating cholestasis” (Mirum Pharmaceuticals, Inc., priority 2019, dated 2026).
Values joined by “and” are separate entries in the source; they are usually repeats but may differ in a detail not shown here. Identical values can stand only once. Like-named read-outs stand apart in the source and are kept apart here.

Key:
[1] = test system: Children with Alagille Syndrome
Procedure: Children aged 1-18 years with a diagnosis of ALGS and evidence of cholestasis were eligible to enroll in the ICONIC clinical study, see Tables 12-14. During a long-term extension, participants with sBA levels above the upper limit of normal and/or an ITCHRO(OBS) score >1.5 were eligible for the 400 μg/kg BID dose (all participants received the 400 μg/kg BID dose). Inclusion criteria for the ICONIC study included having cholestasis, which was defined as at least one of 1) sBA concentration (total sBA) >3× the upper limit of normal, 2) serum conjugated bilirubin concentration >1 mg/dL, 3) fat-soluble vitamin deficiency not otherwise explained, 4) serum gamma-glutamyl transferase concentration >3× the upper limit of normal, and 3) intractable pruritus explainable only by liver disease. Inclusion criteria also included having significant pruritus, which was defined as an average daily score of >2 on the ITCHRO(OBS) scale for 2 consecutive weeks (0=no pruritus; 4=most severe pruritus). Exclusion criteria included having surgically disrupted enterohepatic circulation, a liver transplant, decompensated cirrhosis, or having any liver disease other than ALGS.
sBA responders were defined as those patients achieving ≥50% reduction from baseline in sBA at week 12 or 18. ITCHRO responders were defined as those patients achieving at least a 1-point reduction from Baseline in weekly morning ITCHRO(OBS) score at week 12 or 18.
In the open label extension, the effect of higher doses was explored by increasing dosage to a maximum of 400 μg/kg BID in eligible participants.
Efficacy assessments were based on changes from baseline in sBA concentration, weekly average ITCHRO(OBS) scores (0, none; 4, most severe), CSS score (0, none; 4 most severe), and Clinician Xanthoma Scale score (0, none; 4, disabling). […] During the long-term extension, efficacy assessments were conducted every 12 weeks. Serum total cholesterol and serum 7αC4 concentration were also monitored during the ICONIC clinical study, among other measures.
sBA were measured using a fully validated liquid chromatography-electrospray ionization-mass electrospray (LC-ESI-MS) method using stable-isotope dilution analysis to measure serum concentrations of principal bile acids (cholic, chenodeoxycholic, ursodeoxycholic, deoxycholic acid, lithocholic, and their corresponding glycine and taurine conjugates). Serum samples were analyzed in the Division of Pathology and Laboratory Medicine, Cincinnati Children's Hospital Medical Center according to SOP #PATH.CMS.1033. Calibration standards of individual bile acids were in the range of 50-25,000 ng/mL and Quality Control samples were prepared at concentrations of 100, 500, 1000, 2500, and 20000 ng/mL. The intra- and inter-assay imprecision of the method for individual bile acids measured was within the accepted GLP quality assurance guidelines of <15% coefficient of variance for these QC samples. The lower limit of quantification of the assay was set at 100 ng/mL and the imprecision at this concentration was <20%. The limit of detection of the assay was 5 ng/mL. Total sBA is represented by the sum of the individual bile acid species measured.

[2] = test system: Children with Progressive Familial Intrahepatic Cholestasis; assay: INDIGO phase 2 open-label efficacy and safety clinical study of maralixibat in PFIC; assay type: in vivo, human; conditions: all PFIC 1 patients and all patients harboring a truncating ABCB11 mutation
[3] = Withdrawal-Week 22, Maralixibat group
[4] = first 18 weeks of treatment, 400 μg/kg QD
[5] = one line per Subject ID (Table 18)
[6] = one line per Subject ID (Table 19)
[7] = sBA Normalization (<8.5 μmol/L)

maralixibat
weight Z-scores ([1]; 400 μg/kg QD then 400 μg/kg BID): dose-dependent increase in weight Z-scores
Change in ItchRO from Baseline to Week 48 ([1]; ITCHRO(OBS) weekly morning average score, one line per Subject ID (Table 18)): 0.49 and −0.45 and 1.29 and −3.86 and 0.00 and −2.57 and −1.86 (2×) and −1.71 (2×) and −1.00 (2×) and −1.29 and −1.67 and −1.14 and −1.03 and −3.29 (2×) and −3.43 and −2.50 and −2.71 (2×) and −3.50 and −2.29 and −0.17 and −1.43 and −0.83 and −0.12
sBA response, Week 48 (N = 28) n (%) ([1]; Normalization (<8.5 μmol/L)): 1 (3.6%)
ItchRO (Obs) responders, Decrease from baseline ≥1 ([1]; Open-label Week 18): 67.7%
ItchRO (Obs) responders, Decrease from baseline ≥1.25 ([1]; Open-label Week 18): 58.1%
ItchRO (Obs) responders, Decrease from baseline ≥1.5 ([1]; Open-label Week 18): 51.6%
ItchRO (Obs) responders, Decrease from baseline ≥1 ([1]; Open-label Week 48): 72.4%
ItchRO (Obs) responders, Decrease from baseline ≥1.25 ([1]; Open-label Week 48): 58.6%
ItchRO (Obs) responders, Decrease from baseline ≥1.5 ([1]; Open-label Week 48): 51.7%
C4, Mean ([1]; Week 48, n = 15): 20.4 ng/mL
Serum cholesterol, Mean ([1]; Week 48, n = 15): 340.3 mg/dL
C4, Mean ([1]; Week 191, n = 15): 30.4 ng/mL
Serum cholesterol, Mean ([1]; Week 191, n = 15): 277.5 mg/dL
ItchRO (Obs) responders, Decrease from baseline ≥1 [1, 3]: 53.8%
ItchRO (Obs) responders, Decrease from baseline ≥1.25 [1, 3]: 46.2%
ItchRO (Obs) responders, Decrease from baseline ≥1.5 [1, 3]: 23.1%
study days with minimal or no pruritus (ITCHRO(OBS)≤1) ([1]; after 98 weeks, across participants): over 89%
Clinician xanthoma scale scores ([1]; all participants by week 48): improved significantly
CSS score, mean reduction ([1]; at 191 weeks): 2.4 points
ITCHRO(OBS) score, mean change from baseline ([1]; at 191 weeks): −2.5
sBA levels, reduction from baseline ([1]; at 191 weeks): about 57%
ITCHRO(OBS) final score ([1]; at 193 weeks): about 0.33
ITCHRO(OBS) score, mean reduction ([1]; at 193 weeks): over 2 points
CSS final average score ([1]; by week 48, all participants): about 1.5
CSS scores, average decrease ([1]; by week 48, all participants): over 1.5 points
Clinician Xanthoma Score, reduction from baseline ([1]; by week 191): 0.7 points
ITCHRO(OBS) scores, average decrease relative to baseline ([1]; by week 193 (second statement of b611)): over 1.5 points
PedsQL Multidimensional Fatigue Scale scores ([1]; core study and extension): Improvements
tolerability ([1]; core study and extension, over three years): well tolerated
tolerability ([1]; doses up to 800 μg/kg/day, treatment duration up to 4 years): generally well tolerated
ITCHRO(OBS) scores, mean change from baseline [1, 4]: −1.7
sBA concentration, decrease [1, 4]: 31%
Serum Bile Acid, Change from Baseline to Week 48 [1, 5]: −166.3 μmol/L and −281.4 μmol/L and 166.4 μmol/L and −121.1 μmol/L and 4.3 μmol/L (2×) and −251.0 μmol/L and 3.3 μmol/L and −27.3 μmol/L and −155.5 μmol/L and −240.2 μmol/L and 9.0 μmol/L and 143.1 μmol/L and −112.2 μmol/L and 16.4 μmol/L and −10.9 μmol/L and −16.9 μmol/L and 54.5 μmol/L and −620.4 μmol/L and −23.9 μmol/L and −377.3 μmol/L and −205.9 μmol/L and −270.4 μmol/L and 25.5 μmol/L and −203.6 μmol/L and −96.4 μmol/L and −33.9 μmol/L and −56.4 μmol/L
Serum Bile Acid, Week 48 [1, 5]: 131.8 µmol/L and 98.5 µmol/L and 578.1 µmol/L and 20.8 µmol/L and 333.0 µmol/L and 119.6 µmol/L and 117.7 µmol/L and 492.6 µmol/L and 427.9 µmol/L and 199.8 µmol/L and 29.2 µmol/L and 891.6 µmol/L and 163.4 µmol/L and 60.2 µmol/L and 12.0 µmol/L and 23.6 µmol/L and 126.1 µmol/L and 37.0 µmol/L and 7.0 µmol/L and 101.9 µmol/L and 293.3 µmol/L and 65.0 µmol/L and 110.9 µmol/L and 35.8 µmol/L and 208.0 µmol/L and 55.8 µmol/L and 15.6 µmol/L and 22.9 µmol/L
ItchRO(Obs) Weekly Morning Average Score, Change from Baseline to Week 48 [1, 6]: −0.12 and 0.49 and −0.45 and 1.29 and −3.86 and 0.00 and −2.57 and −1.86 (2×) and −1.71 (2×) and −1.00 (2×) and −1.29 and −1.67 and −1.14 and −1.03 and −3.29 (2×) and −3.43 and −2.50 and −2.71 (2×) and −3.50 and −2.29 and −0.17 and −1.43 and −0.83
ItchRO(Obs) Weekly Morning Average Score, Week 48 [1, 6]: 2.71 and 3.20 and 1.83 and 3.71 and 0.14 and 1.86 and 0.71 and 1.14 (2×) and 0.29 (2×) and 2.00 (2×) and 1.71 (2×) and 1.00 and 1.40 and 0.00 (7×) and 1.43 and 1.57 and 3.50 and 2.17
Height Z-score, increase from baseline ([1]; participants in the ICONIC clinical study): 0.5
growth after dose increase ([1]; patients (N=15) given 400 μg/kg BID after 400 μg/kg QD for in excess of about 40 weeks): further increase in growth from baseline
ITCHRO(OBS), LS mean difference maralixibat vs placebo ([1]; randomized withdrawal): −1.5
sBA levels, least squares mean difference maralixibat vs placebo ([1]; randomized withdrawal (week 18-22)): −114.0
ItchRO(Obs) Weekly Morning Average Score, Average Change from Baseline [1, 7]: −3.50
ItchRO(Obs) Weekly Morning Average Score, Week 48 Average Score [1, 7]: 0.00
ItchRO(Obs) Weekly Morning Average Score, Average Change from Baseline ([1]; sBA ≥50% Reduction): −1.86
ItchRO(Obs) Weekly Morning Average Score, Week 48 Average Score ([1]; sBA ≥50% Reduction): 1.07
ItchRO(Obs) Weekly Morning Average Score, Average Change from Baseline ([1]; sBA ≥60% Reduction): −2.12
ItchRO(Obs) Weekly Morning Average Score, Week 48 Average Score ([1]; sBA ≥60% Reduction): 0.82
ItchRO(Obs) Weekly Morning Average Score, Average Change from Baseline ([1]; sBA ≥70% Reduction): −2.31
ItchRO(Obs) Weekly Morning Average Score, Week 48 Average Score ([1]; sBA ≥70% Reduction): 0.62
ItchRO(Obs) Weekly Morning Average Score, Average Change from Baseline ([1]; sBA ≥80% Reduction): −2.79
ItchRO(Obs) Weekly Morning Average Score, Week 48 Average Score ([1]; sBA ≥80% Reduction): 0.11
ItchRO(Obs) Weekly Morning Average Score, Average Change from Baseline ([1]; sBA ≥90% Reduction): −2.71
ItchRO(Obs) Weekly Morning Average Score, Week 48 Average Score ([1]; sBA ≥90% Reduction): 0.00
relation between reduction in sBA concentration and reduction of severity of pruritus (ITCHRO(OBS)) ([1]; week 48): positive correlation
sBA response, Week 48 (N = 28) n (%) ([1]; ≥50% Reduction): 13 (46.4%)
sBA response, Week 48 (N = 28) n (%) ([1]; ≥60% Reduction): 11 (39.3%)
sBA response, Week 48 (N = 28) n (%) ([1]; ≥70% Reduction): 8 (28.6%)
sBA response, Week 48 (N = 28) n (%) ([1]; ≥80% Reduction): 4 (14.3%)
sBA response, Week 48 (N = 28) n (%) ([1]; ≥90% Reduction): 1 (3.6%)
multi-parameter response [2]: not multi-parameter responders
